The text below walks through data of patent US12012394B2, “Alpha-synuclein ligands” (Washington University, priority 2018, dated 2024).

One may read the Kd as the free concentration of one partner at which half of the binding sites on the other are occupied at equilibrium, for simple one-to-one binding. The logP is a log measure of how a compound divides between an organic and an aqueous phase.

Molecules are shown by their SMILES. Where “and” joins values, the source holds several entries; their conditions need not be identical. Equal values may be shown once.

Data set [1] deals with Banner PD-seeded α-synuclein fibrils (Homo sapiens (Human), UniProt P37840). As to the kind of experiment: Homologous competition radioligand binding assay, PD-seeded fibrils. As to the method: The equilibrium dissociation constant (Kd) for a series of compounds was determined using direct radioactive competitive binding assays (homologous or heterologous) with either recombinant α-synuclein fibrils or brain tissue homogenates from AD cases.
Recombinant protein was produced in E. coli using protocols based on previously described methods for α-synuclein [Giasson, B. I., et al., “Mutant and wild type human alpha-synucleins assemble into elongated filaments with distinct morphologies in vitro,” 1999, J Biol. Chem., 274:7619-7622; Huang, C., et al., “A new method for purification of recombinant human alpha-synuclein in Escherichia coli,” 2005, Protein Expr Purif, 42:173-177; Yu, L., et al, “Synthesis and in vitro evaluation of á-synuclein ligands,” 2012, Bioorg. Med. Chem., 20:4625-4634] and tau [Li, W., et al., “Characterization of two VQIXXK motifs for tau fibrillization in vitro,” 2006, Biochemistry, 45:15692-15701]. BL21(DE3)RIL E. coli were transformed with a pRK172 bacterial expression plasmid containing the human α-synuclein coding sequence. […]. Overnight cultures were centrifuged at 3,900×g for 10 min at 25° C. and the bacterial pellets were resuspended by gentle vortexing in 20 ml osmotic shock buffer (30 mM Tris-HCl, 2 mM EDTA, 40% Sucrose, pH 7.2) and then incubated at room temperature for 10 min. The cell suspension was then centrifuged at 8,000×g for 10 min at 25° C. and the pellet was resuspended in 22.5 ml cold H2O before adding 9.4 μl 2 M MgCl2 to each tube. The suspension was incubated on ice for 3 min prior to centrifugation at 20,000×g for 15 min at 4° C. After the supernatant was transferred to a fresh tube, streptomycin was added to a final concentration of 10 mg/ml and centrifuged at 20,000×g for 15 min at 4° C. The supernatant from this step was collected and dithiothreitol (DTT) and Tris-HCl pH 8.0 were added to final concentrations of 1 mM and 20 mM respectively, before boiling for 10 min to precipitate heat-sensitive proteins, which were pelleted at 20,000×g for 15 min at 4° C. The supernatant was collected and filtered through a 0.45 μm surfactant-free cellulose acetate filter (Corning) before loading onto a 1 ml DEAE Sepharose column equilibrated in 20 mM Tris-HCl pH 8.0, 1 mM EDTA, and 1 mM DTT. The DEAE column was washed with 20 mM Tris-HCl pH 8.0, 1 mM EDTA, 1 mM DTT before eluting α-synuclein protein in 20 mM Tris-HCl pH 8.0 buffer with 1 mM EDTA, 1 mM DTT and 0.3 M NaCl. Purified α-synuclein protein was dialyzed overnight in 10 mM Tris-HCl pH 7.6, 50 mM NaCl, 1 mM DTT.
Purified recombinant α-synuclein monomer (2 mg/ml) was incubated in 20 mM Tris-HCl, pH 8.0, 100 mM NaCl for 72 h at 37 C with shaking at 1000 rpm in an Eppendorf Thermomixer. […] The concentration of α-synuclein monomer in the supernatant was determined in a BCA protein assay according to the manufacturer's instructions, using a bovine serum albumin (BSA) standard curve. The measured decrease in α-synuclein monomer concentration was used to determine the concentration of fibrils in the 72 h fibril reaction mixture. […]
These direct binding assays used a fixed concentration of either fibrils or PD/AD tissue and the radioligand (e.g., [^18F]28) and varying concentration ranges of corresponding homologous non-radiolabeled standard reference compound. […] Reactions were incubated at 37° C. for 1 h before quantifying bound radioligand. […]

Data set [2] can be described thus: MicroPET studies in the brain of nonhuman primate. The data set is classed as in vivo. The note with it: male adult cynomolgus macaca. Here is the method:
9.93 mCi of [^18F]TZ61-44 was injected into a male adult cynomolgus macaca (9.25 Kg) 10.57 mCi of [^11C]TZ55-107 was injected into was injected into a male adult cynomolgus macaca (9.40 Kg) A simplified reference tissue model (SRTM) and spatially-constraint linear regression algorithm was used to generate R1 and DVR images (FIGS. 18A and 18B).
FIGS. 19A and 19B graphically depict the uptake of labeled TZ55-107 and TZ61-44 in the animals. [^18F]TZ61-44 had highest cortical uptake (SUV) of ˜3.48 at 4 min and the uptake ratio at 4 min versus 120 min reached ˜4.2 (FIG. 19A); [^11C]TZ55-107 had highest cortical uptake of ˜6.40 at 4 min, and the uptake ratio at 4 min versus 120 min reached ˜6.30 (FIG. 19B).

The nature of a further data set: Experimental Log P. The data set is classed as physicochemical.

As for `COc1ccc(Nc2ccc3cc(OCCF)ccc3n2)cn1` [TZ61-44], the Kd in data set [1] (25 nM Banner PD-seeded fibrils) was 5.4 nM and 9.7 nM and 12 nM and 25 nM and 26 nM; in data set [1] (75 nM Banner PD-seeded fibrils), 30 nM. Further, in data set [2] (brain cortex, at 4 min), the “highest cortical uptake (SUV)” value was roughly 3.48 SUV. Further, the “uptake ratio at 4 min versus 120 min” value in data set [2] (brain cortex) is roughly 4.2. Besides, the “blood brain barrier penetration” value in data set [2] is recorded as “able to penetrate the blood brain barrier”. The compound further displayed a log partition coefficient (logP) in “Experimental Log P” of 1.97 ± 0.4.
